row,Structure (SMILES),melting point [°C]
1,CCOc1ncc(C(C)=O)cc1C(=O)Nc1c(C(N)=O)nn(C2CCN(C(=O)OC(C)(C)C)CC2)c1CC,197 to 202
2,CN(c1cccc2cc(C3=NCC(CC(N)=O)S3)[nH]c12)S(=O)(=O)c1cccnc1 (stereo unspecified),185 to 186
3,N[C@@H](CSCc1ccc(C(=O)O)cc1)C(=O)O,> 260
4,CS(=O)c1csc(C(=O)O)c1 (stereo unspecified),188 to 190
5,CN1CCc2c(cccc2NC(=O)c2ccccc2I)C1,215 to 216
6,C=Cc1cc(Cl)cc2c1OC(C(F)(F)F)C(C(=O)O)=C2 (stereo unspecified),183 to 186
7,CC(=O)NCc1ccc(CN2CCN(c3ccccc3)CC2)cc1,135 to 136
8,CC(=O)N[C@@H](C)COc1ccc2nc(-c3cc(F)c(OCC4CC4)cc3F)oc2c1F,153
9,COCCOC(=O)NC(=O)CCCCCN=C=O,77
10,NC(=O)c1cc2c3ccccc3[nH]c(=O)n2n1,355 to 358
11,CCOC(=O)C1=C(C)NC(CO)=C(C(=O)OCC)C1c1ccccc1C(F)(F)F (stereo unspecified),147 to 148
12,COc1ccc(C)c2nc(Cc3ccc(Cl)cc3)[nH]c12,195 to 197
13,COc1ccc(C[C@H](NC(=O)OCc2ccccc2)C(=O)O)cc1,106 to 108
14,CCOC(=O)c1cc2c(OC)cccc2[nH]1,168 to 170
15,CCOc1ccc(/C=C/c2nc3c([nH]2)c(=O)n(CC)c(=O)n3CC)cc1,297 to 299
16,C#CCOCC1CCC(COCC#C)CC1 (stereo unspecified),56 to 60
17,COC(=O)C12CCC(C(=O)O)(CC1)CC2,169 to 173
18,CC1(COc2ccc(OCCNCC(O)COc3ccccc3)cc2)OCCO1 (stereo unspecified),95 to 97
19,Cc1cc(Cl)ccc1N=CN(C)SN(Cc1ccccc1)Cc1ccccc1,97 to 99
20,COC(=O)c1ccccc1OCCCn1c(C(=O)C2CCN(CCC3(c4ccccc4)CCN(C(=O)c4cc(OC)c(OC)c(OC)c4)C3)CC2)nc2ccccc21 (stereo unspecified),74 to 80
21,CCCn1nc2c(N)nc3ccccc3c2c1CCN(CC)C(N)=O,206 to 207
22,Cc1csc(NC(=S)Nc2cc(Cl)ccc2C)n1,188
23,C[C@@H]([C@H]1CO1)[C@](O)(Cn1cncn1)c1ccc(F)cc1F (relative stereo),160 to 180
24,C(#Cc1cccc2ccccc12)c1ccccc1,51 to 53
25,CC1=Nc2ccccc2S(=O)(=O)N1,260 to 261
26,Nc1cc(C(=O)c2ccccc2)ccc1Cl,91.9

row,Structure (SMILES),melting point [°C]
1,CCn1cc(C(=O)O)c(=O)c2cc(F)c(-c3cc(C)nc(C)c3)cc21,> 310
2,COc1ccc2c(c1)CCNC(=O)C2,152 to 154
3,O=[N+]([O-])C1NC=CN1c1ccncc1 (stereo unspecified),234
4,CC1=NS(=O)(=O)N(Cc2ccncc2)C=C1,100 to 101
5,CN1C(=O)CN=C(N2CCC(C)(C)CC2)c2ccccc21,143 to 145
6,COC(=O)Nc1ccc(OC)c(OC)c1,83 to 87
7,O=C1C(=O)c2ccccc2C2=C1SCC1(CCCN(CC(O)Cc3ccccc3)C1)O2 (stereo unspecified),59 to 60
8,c1ccc2c(CCCc3nccc4ccccc34)nccc2c1,96 to 97
9,O=C1C=C(NC(=O)C(=O)c2cn(Cc3ccc(Cl)cc3)c3cccc(CO)c23)CO1,238 to 240
10,CC1CCCN(c2cncc(C(=O)Nc3nnn[nH]3)n2)C1 (stereo unspecified),236 to 238
11,CCCc1c(C(=O)NCc2ccc3c(Br)c(OCc4nnn[nH]4)ccc3c2)cnn1-c1ccccc1,219 to 220
12,COc1cc2c(cc1Nc1ncc(Cl)c(N[C@@H]3CCCC[C@H]3NS(C)(=O)=O)n1)CCOC(=O)N2C,160 to 162
13,CC(C)(C)OC(=O)NC(C)(C)c1ccc(Br)nc1,100 to 103
14,Cc1csc(C(=O)NN)c1N,141 to 143
15,COc1ccc(S(=O)(=O)N2C(=O)[C@@](c3ccccc3OC)(N3C[C@H](OC(=O)C4CCCCC4)C[C@H]3C(=O)N(C)C)c3cc(Cl)ccc32)c(OC)c1,197 to 198
16,O=C(NCc1ccon1)c1ccnc(N2CCN(Cc3ccc(F)cc3)C2=O)c1,127 to 129
17,CC(=O)OC1CSC(Oc2cncc(F)c2)C(OC(C)=O)C1OC(C)=O (stereo unspecified),143
18,CC(C)Cn1c(CN)nc2c(N)nc3ccccc3c21,287 to 291
19,CS(=O)(=O)Nc1ccc(N2CCN(c3ccncc3)CC2)cc1,230 to 232
20,C=Cc1ccc(C(=O)NC(C#N)n2cccn2)cc1 (stereo unspecified),159 to 161
21,CC(C)C(NC(=O)c1ccc(-c2ccccc2)cc1)C(=O)O (stereo unspecified),168
22,Cc1c(-c2ccc(OCc3ccccc3)cc2)n(Cc2ccc(OCCN3CCCCCC3)cc2)c2ccc(OCc3ccccc3)cc12,106 to 107
23,COc1ccc(N=C(NC(=S)NCc2cccnc2)c2ccccc2)cc1,142 to 143
24,CCCOc1ccc(C#N)cc1-c1ccc(C#N)c(=O)[nH]1,248 to 251
25,COc1ccc(N2C(=O)C3=C(CCCC3)C2CC(=O)N2CCCCC2)cc1 (stereo unspecified),101 to 102
26,CCN(CC)C(=O)CP(=S)(c1ccccc1)c1ccccc1,108 to 110

row,Structure (SMILES),melting point [°C]
1,NC(=O)C1CN1C(=O)Oc1ccccc1 (stereo unspecified),140 to 142
2,CC(C)n1c(/C=C/C2CC(O)CC(=O)O2)c(-c2ccc(F)cc2)c2ccccc2c1=O (stereo unspecified),151 to 154
3,C=CCNC(=O)C(O)C1OC(n2cnc3c(N)ncnc32)C(O)C1O (stereo unspecified),136 to 138
4,COC(=O)c1cnc(SC)n1C(c1ccccc1)c1ccccc1,118
5,Cc1nc2c(OCc3c(Cl)ccc(S(=O)(=O)N4CCC[C@H]4C(=O)NCCCNC(=O)c4ccc(C#N)cc4)c3Cl)cccn2c1Cl,115
6,Cc1ccc(N2CCN(S(=O)(=O)c3cccc(/C=C/C(=O)NO)c3)CC2C)cc1 (stereo unspecified),186
7,COC1(C)OC(=O)c2c(O)cccc21 (stereo unspecified),101 to 104
8,CCCCN(CCCC)CCCNc1ccccc1[N+](=O)[O-],79
9,COc1cccc2c1CC(n1cc[nH]c1=S)CC2 (stereo unspecified),249 to 251
10,COCCN1CCN(CCc2ccc(Nc3ncc4c(n3)-c3ccccc3[C@H](c3ccc(F)cc3)C4)cc2)CC1,195 to 198
11,CCOC(=O)CN1C(=O)C(NC(=O)Nc2ccc(Cl)cc2)N=C(c2ccccc2F)c2ccccc21 (stereo unspecified),253 to 254
12,CC(C)CCCC(C)C1CCC2C3CCC4CC(NC(=O)C(COCc5ccccc5)NC(=O)OC(C)(C)C)CCC4(C)C3CCC12C (stereo unspecified),55 to 67
13,CCOc1nc(NCc2ccco2)nc(Nc2ccc3nc(C)[nH]c3c2)n1,150 to 152
14,COc1ccc(Sc2nc(-c3ccc(OC)cc3)c(-c3ccc(OC)cc3)[nH]2)cc1,148
15,CCOC(=O)c1cc(Cl)c(Cl)c(C2=NOCC2)c1C,96 to 97
16,CC(C)(C)c1ccc(CCC(O)CCC2CCCCCC2)cc1NC(=O)CC1c2ccccc2Oc2ccccc21 (stereo unspecified),146 to 147
17,O=C1C(=O)c2ccccc2C2=C1SCC1(CCOCC1)O2,195 to 197
18,COC(=O)c1ccc2c(c1)S(=O)(=O)N=CN2C1CC1,192 to 195
19,Nc1cnc(-c2ccc(Cl)cc2)n(CC(=O)NC(Cc2ccccc2)C(=O)C(F)(F)F)c1=O (stereo unspecified),197 to 200
20,CSC1(N)N=C(N(C)C)N=C(N)N1 (stereo unspecified),207 to 212
21,O=C(O)CC[C@H](NC(=O)Oc1ccc(N(CCCl)CCCl)cc1)C(=O)O,87 to 89
22,CCCCO/N=C(\C(=O)On1nnc2ccccc21)c1csc(NC(c2ccccc2)(c2ccccc2)c2ccccc2)n1,100 to 102
23,O=S1(=O)NCN(C2CC2)c2ccc(Br)cc21,178 to 179
24,COc1ccc(CCCC(=O)CCC(=O)O)cc1,88 to 89
25,C=C(c1ccc(C(C)C)cc1)c1c(C)c(NC(=O)CCCC)c(C)c2c1OCC2,172 to 173
26,O=C1c2ccccc2C(=O)C1c1cccc([N+](=O)[O-])c1,216 to 226

row,Structure (SMILES),melting point [°C]
1,COC(=O)c1sc(C)c2nc(OC)n(Cc3ccc(-c4ccccc4C#N)cc3)c12,181 to 182
2,CCCn1c(=O)c2[nH]c(C34CC5CC3CC(C4)C5=O)nc2n(CCC)c1=O,172 to 174
3,CC(C=Cc1c(C)cc(C)c(C)c1C)=CC=CC(C)=CC(=O)O,201 to 202
4,CCCSc1cc(C(=O)CCC(=O)c2cc(OC)c(OC)c(OC)c2)cc(OC)c1OCc1ccccc1,114 to 115
5,CCCOc1c(C=O)c(=O)n(C)c(=O)n1C,57 to 58
6,CS(=O)(=O)c1ccc(-c2cc3n(c2-c2ccc(F)cc2)CCC3)cc1,154
7,COc1ccc(CN(C)CCCOc2ccc(NC(=O)c3cccc4c(=O)c5cccc(F)c5[nH]c34)cc2)cc1OC,150
8,CCOC(=O)/C=C/c1ccc(C=Cc2nc(-c3ccc4ccccc4c3)oc2C)cc1,186 to 187
9,N#Cc1cc(-c2cnccn2)c[nH]c1=O,250
10,CON=C(c1ccc(OC(C)(C)C(=O)O)cc1)c1cccs1,168
11,CCOCc1nc2cnc3ccccc3c2n1CCCCC(N)=O,157 to 158
12,CSC(=S)C12CC3CC(CC(C3)C1)C2,64.5 to 66
13,COc1ccc2nc(C)[nH]c(=O)c2c1Br,273 to 274
14,Cc1cccc(N2C(=O)CC(Cl)C2=O)c1 (stereo unspecified),137 to 138
15,CCCCC[C@H]1CC[C@H](c2ccc(C#Cc3ccc(OC(F)F)cc3)cc2)CC1,62
16,Cc1ccc(NC(=O)c2cccc(N(C)C)c2)cc1Nc1ncc(-c2cccnc2)o1,228
17,COc1cc(C(=O)N2CCN(C(=O)C3=Cc4cc(O)c(O)cc4CCC3)CC2)cc(OC)c1OC,206 to 207
18,CN(C(F)F)S(=O)(=O)c1ccccc1S(N)(=O)=O,128
19,CC(C)(C)NC(=O)NCC#CCNC(=O)Nc1nc2c(s1)-c1c(cnn1-c1ccccc1)CC2,196
20,CCc1nc2c(cnn2CC)c(NC2CCOCC2)c1CNC(=O)c1cccc(C(=O)NCc2cc(Cl)cc(-c3cccc(CN4CCN(C)CC4)c3)c2)c1,116 to 118
21,CSc1ccc(-c2nn(CC=Cc3ccc(Cl)cc3)c(=O)cc2-c2ccc(F)cc2)cc1,119
22,CCOC(=O)c1cc(NC(=O)C2=C(CC)OCCS2)ccc1Cl,86 to 88
23,Nc1cc2c(cc1[N+](=O)[O-])CCC2,131 to 132

# Reference: a melting point compilation (Tetko et al.; mined from patent text by program, amines drawn as free bases though some values may be those of a salt)
